Data on three molecules can be found in patent publication US10526383B2, “Ghrelin splice variant for treating neuronal damage, neurodegenerative disease, parkinsons disease, alzheimers disease, and/or depression” (priority 2013, dated 2020).

Series [1] relates to C57Bl/6 mice primary cell culture. The series is described as follows: Trypan blue cell viability assay, protection against H2O2-induced cell death. The class given is cell-based. Conditions: for protective action against the damages produced by H2O2 in terms of cell viability: 50 μM H2O2 plus 1 μM peptide, compared to negative control (H2O2). As for the experimental part: The protective effects of ghrelin splice variant against induced cell death, cell viability, of C57Bl/6 mice primary cell culture, was analysed by trypan blue assay, an indirect method based on the dye exclusion of live cells with intact cell membrane.
Cells were treated with 50 μM H2O2 to induce cell damages and death. The neuroprotective effect of ghrelin splice variant was tested by treating the cells with either H2O2 plus 1 μM ghrelin splice variant, H2O2 plus 1 μM ghrelin or H2O2 plus both peptides. Controls samples were untreated cells.

The conditions of series [2]: cited from earlier work.
The subject of another series is SN DA neurons. The series is described as follows: mEPSC and mIPSC recordings of SN DA neurons after treatment of WT mice. The class given is in vivo. To be noted: compared with saline control, n=6 cells. How it is done:
Brain slices preparation: Brain slices (300 µm) containing the SN, will be cut on a vibratome from 4-6 week old males (n=10 per group). Briefly, animals will be anesthetized with Nembutal (80 mg/kg) and then decapitated. The brains will be rapidly removed and immersed in cold […] oxygenated bath solution (containing (mM): NaCl 150, KCl 2.5, CaCl2 2, MgCl2 2 Hepes 10, and glucose […] with NaOH). After being trimmed to contain only the SN, slices will be transferred to a recording chamber where they are constantly perfused with bath solution at 2 ml/min. DA neurons in the SN are identified by presence of a large Ih current (>100 pA) evoked by hyperpolarizing voltage steps from −50 to −120 mV for 2 s (22). This approach identifies dopaminergic cells with >90% accuracy. […] Electrophysiological data will be analyzed with Axograph 4.9 (Axon Instruments) and plotted with Igor Pro software (WaveMetrics, Lake Oswego, Oreg., USA). […] The pipette will be filled with a solution containing the following (mM): KMeSO, 145 (mEPSC) or KCL, 145 (mIPSC); MgCl2, 2; HEPES, 10; Mg-ATP, 2.; Nat-GTP, 0.3; and KOH to adjust pH to 7.3. mEPSC recordings will be achieved under the prescence of TTX and bicucullin, whereas mIPSC will be monitored under the presence of TTX, AP5 and CNQX. The frequency and amplitude of mEPSC and IPSC will be recorded as described previously. […] N=number of cells recorded.

The test system of the next series is MPTP-mice. As to the kind of experiment: MPTP mouse model of Parkinson's disease. The class given is in vivo. Conditions: 10 nmol once-a-day, day -7 to day 10 after MPTP. As for the experimental part:
In the MPTP model, the bilateral dopaminergic neuronal death of the substantia nigra and dopamine depletion of the striatum is created by i.p. injection of MPTP. Experimental groups:
• Group 1: 10 Sham-mice treated with vehicle (10 ml/kg) once-a-day starting day-7 and continuing until the end of the study day 10 • Group 2: 10 MPTP-mice treated with vehicle (10 ml/kg) once-a-day starting day-7 and continuing until the end of the study day 10 • Group 3: 10 MPTP-mice treated with Ghrelin SplicVariant (10 nmol) once-a-day starting day-7 and continuing until the end of the study day 10 Ghrelin Splice Variant or vehicle was administered once-a-day immediately before the dark phase, and […] were removed overnight starting seven days prior to MPTP challenge and continued until end-point day 10 after MPTP. Striatal levels of dopamine (DA), […] (DOPAC) and homovanillic acid (HVA) are evaluated 10 days after the injection of MPTP with HPLC. In addition, the selective damage to dopaminergic neurons in the SNc is evaluated with tyrosine hydroxylase (TH) immunoreactivity. Food intake and body weight were monitored daily in all mice administered Ghrelin Splice Variant.

Series [3] is described as follows: Pharmacokinetics after subcutaneous administration, plasma LC/MS/MS. The class given is in vivo, Sprague-Dawley rats. To be noted: Sprague-Dawley, rat; for half-life: across dose groups; for AUC / AUC(0-inf): SC; for AUC: high dose (10 mg/kg). As for the experimental part: Subcutaneous administration of ghrelin splice variants was performed at three dose levels of 0.5, 2.5 and 10 mg/kg corresponding to concentrations of 0.1, 0.5 and 2 mg/ml, respectively, and at a constant volume dosage of 5 ml/kg. Intravenous injection was performed at one dose level of 0.5 mg/kg corresponding to a concentration of 0.1 mg/ml and a constant volume dosage of 5 ml/kg as well. The study comprised 9 male and 9 female Sprague-Dawley™ (SD™) rats per dose level and route of administration.
Bleeding sampling design was confined to 9 bleeding time points for each dose level: pre-dosing, 5, 15, 30, 60 and 90 min, 3, 5 and 24 hrs, post-dosing. Each group was divided into 3 sub-groups, each being assigned 3 specific bleeding time points, in order to receive 3 individual samples/time point/group (total of 27 individual samples/group). […] Whole blood samples were kept on ice from the time of blood collection until the time of centrifugation. The obtained plasma samples were flash frozen in liquid nitrogen and kept on dry ice until removal to −70° C.
Concentrations of the Test Item in plasma were determined by LC/MS/MS (liquid chromatography/mass spectrometry/mass spectrometry). Pharmacokinetic analysis of Ghrelin Splice Variant was based on mean plasma concentration time profiles for each dose group as obtained by Non-compartmental Pharmacokinetic analysis, generated by the use of the computer software: “PK Solutions 2.0” (Summit Research Services, Colo., USA).

Series [4] relates to SNpc DA neurons. As to the kind of experiment: Patch clamp (whole-cell current clamp) recordings of action potentials in brain slices, bath application. The class given is cell-based, mice. To be noted: 1 μM. As for the experimental part:
Brain slices preparation: Brain slices (300 µm) containing the SN, will be cut on a vibratome from 4-6 week old males (n=10 per group). Briefly, animals will be anesthetized with Nembutal (80 mg/kg) and then decapitated. The brains will be rapidly removed and immersed in cold […] oxygenated bath solution (containing (mM): NaCl 150, KCl 2.5, CaCl2 2, MgCl2 2 Hepes 10, and glucose […] with NaOH). After being trimmed to contain only the SN, slices will be transferred to a recording chamber where they are constantly perfused with bath solution at 2 ml/min. DA neurons in the SN are identified by presence of a large Ih current (>100 pA) evoked by hyperpolarizing voltage steps from −50 to −120 mV for 2 s (22). This approach identifies dopaminergic cells with >90% accuracy. In brain slices, whole-cell current clamp will be used to observe spontaneous action potentials. Slices will be maintained at 330 C and perfused continuously with ASCF (bubbled with 5% CO2 and 95% O2) containing (in mM): NaCl, 124; KCl, 3; CaCl2, 2; MgCl2, 2; NaH2PO4, 1.23; NaHCO3, 26; glucose, 10; pH 7.4 with NaOH. Ghrelin Splice Variant will be applied to the recording chamber via bath application.The pipette solution containes (mM): Gluconic Acid 140, CaCl2, MgCl2 2, EGTA 1, HEPES 10, Mg-ATP 4, and Na2-GTP 0.5, pH 7.3 with KOH. To further explore the mechanism of Ghrelin Splice Variant-mediated effect on action potentials in DA neurons, we will analyze the effect of Ghrelin Splice Variant on action potential frequency either in the presence of ionotropic glutamate receptor antagonists CNQX (10 µM) and APS (50 µM) in all solutions, or in the presence of bicuculine (30 µM; to block diminish GABA effects) in all solutions. Analysis: All data will be sampled at 3-10 kHz and […] at 1-3 kHz with an Apple Macintosh computer using Axograph 4.9 (Axon Instruments). Electrophysiological data will be analyzed with Axograph 4.9 (Axon Instruments) and plotted with Igor Pro software (WaveMetrics, Lake Oswego, Oreg., USA). To complement, the electron microscopic measurements of synapses, we will also analyze mEPSC and mIPSC of SN DA neurons. Mice (C57BL/J6; n=10) between the ages of 4-6 weeks of age will be injected with Ghrelin Splice Variant (30 μg in 0.3 ml) or vehicle ip at 09:00 hrs. Two hours later, animals will be sacrificed under neinbutal anesthesia and their brains collected as described above. For the recording of mEPSCs and IPSCs, SN DA cells will be patched with pipettes with a tip resistance of 4-6 MΩ and partially compensated by the amplifier. The pipette will be filled with a solution containing the following (mM): KMeSO, 145 (mEPSC) or KCL, 145 (mIPSC); MgCl2, 2; HEPES, 10; Mg-ATP, 2.; Nat-GTP, 0.3; and KOH to adjust pH to 7.3. mEPSC recordings will be achieved under the prescence of TTX and bicucullin, whereas mIPSC will be monitored under the presence of TTX, AP5 and CNQX. The frequency and amplitude of mEPSC and IPSC will be recorded as described previously. Differences in the frequency of mEPSCs and mIPSCs of DA cells from Ghrelin Splice Variant and saline treated animals will be compared using unpaired t-tests with the critical level set at α=0.05). […] N=number of cells recorded.
(In general: In patch-clamp work, channel activity is measured electrically.)

Series [5] has as its system SNpc DA neurons. The series is described as follows: mEPSC recordings in GHSR1a knockout mice and their WT littermates. It is filed as cell-based. To be noted: 1 μM, in presence of TTX and bicuculline.
Another series deals with growth hormone. As to the kind of experiment: GH release after subcutaneous bolus injection (growth hormone ELISA). It is filed as in vivo, mice. Conditions: 20 μg subcutaneous bolus; 10 minutes after administration. As for the experimental part:
Acylated ghrelin splice variants (20 μg) or the Vehicle (1.6% mannitol) were administered by a subcutaneous bolus injection (Corresponding to 0.3 μmol/kg) to 5 mice each. Blood was sampled 10 and 20 min after injection. Serum samples were stored at −70° C. and analyzed by the RAT/MOUSE GROWTH HORMONE ELISA KIT 96-Well Plate (Cat. EZRMGH-45K) (Millipore Corporation, Billerica, Mass., USA). Results: The serum […] growth hormone concentration 10 minutes after subcutaneous administration of acylated ghrelin splice variant or the Vehicle was 2-14-fold higher in the ghrelin splice variant group in comparison to the vehicle group.
In general terms: ELISA stands for enzyme-linked immunosorbent assay.

Where [6] appears, read: listed as Ghrelin splice variant.

“Also recorded” adds a separate entry of the source. Where a SMILES comes first, the peptide text is derived from it. Where no end group is shown, it is not given here. The star is where a group is joined. Octanoyl = CCCCCCCC(=O)*

Take “Ghrelin: 28 amino acid peptide bearing an n-octanoyl side chain on the third serine (GSS(Octanoyl)FLSPEHQRVQQRKESKKPPAKLQPR; UniProt Q9UBU3 24-51, looked up) [reference compound]”: the “protective action against the damages produced by H2O2 in terms of cell viability” value is reported as “statistically significant” in series [1] and “statistically significant effective protective action” in series [1] (listed as ghrelin). The “increase of food intake” value in series [2] (infusion for 90 minutes, cancer cachexia patients) was 30%. Moreover, the “increase of energy intake” value in series [2] (subcutaneous injection of 3.6 nmol/kg prior to a meal) was 27%.
On to `OO` [H2O2, reference compound], for which the cell survival in series [1] (50 μM H2O2 alone) amounted to 50%.
On to `CCCCCCCC(=O)OC[C@H](NC(=O)[C@H](CO)NC(=O)CN)C(=O)N[C@@H](Cc1ccccc1)C(=O)N[C@@H](CC(C)C)C(=O)N[C@@H](CO)C(=O)N1CCC[C@H]1C(=O)N[C@@H](CCC(=O)O)C(=O)N[C@@H](Cc1c[nH]cn1)C(=O)N[C@@H](CCC(N)=O)C(=O)N[C@@H](CCCNC(=N)N)C(=O)N[C@H](C(=O)N[C@@H](CCC(N)=O)C(=O)N[C@H](C(=O)N[C@@H](CCCNC(=N)N)C(=O)N1CCC[C@H]1C(=O)N1CCC[C@H]1C(=O)N[C@@H](Cc1c[nH]cn1)C(=O)N[C@@H](CCCCN)C(=O)N[C@@H](C)C(=O)N1CCC[C@H]1C(=O)N[C@@H](Cc1c[nH]cn1)C(=O)O)C(C)C)C(C)C` [Ghrelin Splice Variant] (H-GSS(Octanoyl)FLSPEHQRVQVRPPHKAPH-OH), for which the “frequency of mEPSCs” value in the series with SN DA neurons is reported as 67.2 ± 3.1. The “frequency of mIPSCs” value in the series with SN DA neurons is 60.5 ± 8.9. The “protective action against the damages produced by H2O2 in terms of cell viability” value in series [1] (setting [6]) is given as “effective protective action”; in series [1] (listed as ghrelin splice variant), “statistically significant effective protective action; also recorded: greater than ghrelin treatment”. Further, in the series on MPTP-mice, the “MPTP-induced nigrostriatal DA damage (loss of DA neurons)” value was “attenuates MPTP-induced nigrostriatal PA damage”. Further, the “cumulative weight gain / recovery after MPTP treatment” value in the series with MPTP-mice is “managed to recover after the MPTP treatment”. For the same molecule, the half-life (as a rule, the time needed for the level to fall by half in the phase considered) in series [3] (subcutaneous, female rats) was in the range of 10.7 to 28.9 min; in series [3] (subcutaneous, male rats), 17.4 to 26.4 min. In addition, the Tmax (commonly the time from dosing to the highest level) in series [3] (both sexes, subcutaneous, post-dosing, all dose groups) is 5 min. Further, the AUC (usually the area under the concentration-time curve, a measure of exposure) in series [3] (female, females) was 818 ng·h/mL; in series [3] (male, males), 1320 ng·h/mL. In addition, the AUC(0-inf) (commonly total exposure, with the tail of the curve extrapolated) is 86.7 ng·h/mL in series [3] (female, low dose (0.5 mg/kg), females); 347 ng·h/mL in series [3] (female, mid dose (2.5 mg/kg), females); 102 ng·h/mL in series [3] (male, low dose (0.5 mg/kg), males); 313 ng·h/mL in series [3] (male, mid dose (2.5 mg/kg), males). The values for the action potential firing result in the series with SNpc DA neurons [4] and in the series with SNpc DA neurons [4] (setting [6]) were “increment in AP firing” and “increment in action potential firing”, respectively. Also, the depolarization result in the series with SNpc DA neurons [4] is reported as “about 10 mV”. Also, the “duration of effect after washout” value was 20 min in the series on SNpc DA neurons [4] and “at least 20 minutes” with SNpc DA neurons [4] (setting [6]). Also, the mEPSC frequency is 27.3+/−2.8 per min with SNpc DA neurons [5] (GHSR1a knockout mice, n=9 cells) and 98.1+/−24.7 per min in the series on SNpc DA neurons [5] (WT animals, n=31 cells). Further, the “serum and brain growth hormone concentration in comparison to the vehicle group” value in the series on growth hormone is recorded as 2-14 fold.
